Usually IC50 stands for the concentration needed to halve the response being measured. Lower therefore signals greater potency in that assay.

Structures are written as SMILES.

Three compounds from patent publication US5525617A, “Fibrinogen receptor antagonists” (Merck & Co., Inc., priority 1994, dated 1996) can be followed below.

The test system of this assay is gel-filtered human platelets. In words: in vitro ADP-stimulated platelet aggregation (inhibition). The class given is cell-based. The conditions noted are these: gel-filtered human platelets 2×10^8 per ml, fibrinogen 100 micrograms per ml, Ca^2+ 1 mM, 10 mM ADP, 37° C., Chronolog aggregometer. The protocol: Platelet aggregation is measured at 37° C. in a Chronolog aggregometer. The reaction mixture contains gel-filtered human platelets (2×10^8 per ml), fibrinogen (100 micrograms per ml (ug/ml)), Ca^2+ (1 mM), and the compound to be tested. The aggregation is initiated by adding […] ADP 1 minute after the other components are added. The reaction is then allowed to proceed for at least 2 minutes. The extent of inhibition of aggregation is expressed as the percentage of the rate of aggregation observed in the absence of inhibitor. The IC50 is the dose of a particular compound inhibiting aggregation by 50% relative to a control lacking the compound.
In addition to the following preparative procedures, several examples of in vitro bioactivity of compounds within the scope of the present invention are indicated. To illustrate, one test which is used to evaluate fibrinogen receptor antagonist activity is based on evaluation of inhibition of ADP-stimulated platelets. Aggregation requires that fibrinogen bind to and occupy the platelet fibrinogen receptor site. Inhibitors of fibrinogen binding inhibit aggregation. In the ADP-stimulated platelet aggregation assay used to determine inhibition associated with the compounds claimed in the instant invention, human platelets are isolated from fresh blood, collected into acid citrate/dextrose by differential centrifugation followed by gel filtration on Sepharose 2B in divalent ion-free Tyrode's buffer (pH 7.4) containing 2% bovine serum albumin.
Regarding `O=C(O)CCNC(=O)c1ccc2c(c1)C(=O)C(CCC1CCNCC1)C2` (stereo not drawn), inhibition was half-maximal at 2300 nM (IC50).

Regarding `CCCCS(=O)(=O)N[C@@H](CNC(=O)c1ccc2c(c1)C(=O)C(CCC1CCNCC1)C2)C(=O)O` (stereo partly drawn), it took 9 nM to reach half-maximal inhibition (IC50).

Regarding `CCCCS(=O)(=O)N[C@@H](CNC(=O)c1ccc2c(c1)CC(CCC1CCNCC1)C2)C(=O)O` (stereo partly drawn), the 50% inhibitory concentration (IC50) was 14 nM.
